From patent US20250304623A1, “PEPTIDES FOR INTRACELLULAR DELIVERY” (UNIVERSIDADE DE SANTIAGO DE COMPOSTELA, priority 2022, published 2025)
*: point of attachment. NHNH2 = NN*

What was measured:
Type in all cases: cell-based
ARPE19 cells = test: RLuc pDNA delivery, robotic library screening, ARPE19
Hela cells = test: RLuc pDNA delivery, robotic library screening, HeLa
Description: Cells were seeded in a 96 well plate the day before the experiment at a concentration of 60,000 cell/mL (100 μL/w) in DMEM+10% FBS+1% Gln-Abt. For robotic library screening, the delivery of pDNA encoding for the expression of Renilla luciferase gene (RLuc, pRL-CMV (Promega, #E2261)) in six different cell lines was performed. […] The mixture was shaken for 30 min at room temperature before the addition to the cells. The cell medium was aspirated, and cells were washed twice with PBS. Finally, 50 μL of the complex's solution were added to the cells and incubated for 4 h. After the incubation, the medium was replaced by 100 μL of fresh DMEM supplemented with 10% FBS. 72 hours after transfection the DMEM was removed, cells were washed once with HBSS and 90 μL of HBSS were added to each well. Cells were incubated at 37° C. for 30 minutes. Then basal luminescence levels were read in a plate reader. Immediately, 10 μL of coelenterazine h in HBSS were added to each well (5 μM final concentration) and cells were incubated at 37° C. for 10 minutes. Finally, the total luminescence measurement of the plates was performed. Amphiphile transfection efficiency was compared and normalized to Lipofectamine® 2000 efficiency (value of 1 in Tables 1-5 and 7; bold numbers). All experiments were done in triplicate.
Tables 1-7: RLuc (pDNA) or EGFP (mRNA) expression levels were normalized to Lipofectamine reagents (value=1) and expressed as fold-times signal increase. In the case of siRNA, the siRNA treated cells fluorescence was compared with siMOCK control fluorescence, while Cas9-RNP mediated knockout was measured against the fluorescence of untreated cells. In both siRNA and Cas9-RNP, values are expressed as % fluorescence reduction. Amphiphile concentration was 5 μM in all cases. All experiments were performed in triplicate.
Tables 8-13 show the mean (triplicates) luminescent intensity (RLU) measured after the transfection of RLuc pDNA by different amphiphiles at different concentrations in a variety of cell lines. Background luminescence values, accounted by untransfected control cells, were subtracted for processing.

[1] = tested on: ARPE19 cells expressing EGFP; test: Cas9-RNP delivery against EGFP (gene editing, plate reader), ARPE19
Description: To generate an EGFP expressing HeLa cell line, HeLa cells were transfected with EGFP pDNA (pEGFP-C1, Clontech) and stable transfectants were selected with 400 μg/mL of G-418 (Millipore). Green clones were selected by epifluorescence microscopy and tested for EGFP expression stability through several passages. […] All other EGFP-expressing cell lines were obtained in a similar way from parent non-EGFP-expressing cell lines.
Cells expressing EGFP were seeded in a 96 well plate the day before the experiment at a concentration of 50,000 cell/mL (100 μL/w) in DMEM+10% FBS+1% Gln-Abt. For robotic library screening, the delivery of Cas9-RNP against EGFP (RNP designed to knock-out the gene encoding for the enhanced green fluorescent protein (EGFP)) was performed. For RNP assembly, 9.2 μL of crRNA and 9.2 μL of tracrRNA were mixed in 211.6 μL of Nuclease-Free Duplex Buffer (IDT), incubated for 5 min at 95° C. and slowly cooled at rt (see I. Lostalé-Seijo, et al. Peptide/Cas9 nanostructures for ribonucleoprotein cell membrane transport and gene edition, Chem. Sci., 2017). Cas9 protein was dissolved in DMEM at a final concentration of 4 μM and equal volumes of the RNA complex and Cas9 were mixed and incubated for 5 min at rt. 75 μL of the corresponding amphiphile concentrations were added to 5 μL of RNP at 2 μM. The mixture was shaken for 30 min at room temperature before the addition to the cells. The cell medium was aspirated, and cells were washed twice with PBS. Cells were covered with 30 μL of DMEM and 20 μL of the RNP/amphiphile complexes were added to the cells (final peptide concentrations=2.5, 5 and 10 μM; final Cas9-RNP concentration=50 nM) and incubated for 4 h. After the incubation, the medium was replaced by 100 μL of fresh DMEM supplemented with 10% FBS. The total EGFP fluorescence was quantified after 72 h in a plate reader (FIG. 2, Table 1 (right) and Table 6). All experiments were done in triplicate. […]
Tables 26-31 show the mean (triplicates) percentage of gene editing, accounted by GFP fluorescence intensity decrease (% of reduction), measured after the transfection of Cas9-RNP by different amphiphiles at different concentrations in a variety of cell lines. Background values, accounted by untreated control cells, were subtracted for processing.

Substance	mean luminescent intensity (RLuc pDNA) (ARPE19 cells; Myristoleyl, 5 μM)	mean luminescent intensity (RLuc pDNA) (ARPE19 cells; Myristoleyl, 10 μM)	mean luminescent intensity (RLuc pDNA) (ARPE19 cells; Myristoleyl, 15 μM)	mean luminescent intensity (RLuc pDNA) (ARPE19 cells; Palmitoleyl, 15 μM)	mean luminescent intensity (RLuc pDNA) (ARPE19 cells; Petroselinyl, 5 μM)	mean luminescent intensity (RLuc pDNA) (ARPE19 cells; Petroselinyl, 15 μM)	mean luminescent intensity (RLuc pDNA) (Hela cells; HeLa, Petroselinyl, 10 μM)	mean luminescent intensity (RLuc pDNA) (Hela cells; Hela, Dodecanal, 10 μM)	mean luminescent intensity (RLuc pDNA) (Hela cells; Hela, Dodecanal, 15 μM)	mean luminescent intensity (RLuc pDNA) (Hela cells; Hela, Myristoleyl, 5 μM)	mean luminescent intensity (RLuc pDNA) (Hela cells; Hela, Myristoleyl, 10 μM)	mean luminescent intensity (RLuc pDNA) (Hela cells; Hela, Oleyl, 10 μM)	mean luminescent intensity (RLuc pDNA) (Hela cells; Hela, Oleyl, 15 μM)	mean luminescent intensity (RLuc pDNA) (Hela cells; Hela, Palmitoleyl, 10 μM)	mean luminescent intensity (RLuc pDNA) (Hela cells; Hela, Palmitoleyl, 15 μM)	mean luminescent intensity (RLuc pDNA) (Hela cells; Hela, Petroselinyl, 5 μM)	mean luminescent intensity (RLuc pDNA) (Hela cells; Hela, Petroselinyl, 15 μM)	percentage of gene editing, GFP fluorescence intensity decrease (% of reduction) ([1]; Oleyl, 10 μM)	percentage of gene editing, GFP fluorescence intensity decrease (% of reduction) ([1]; Oleyl, 15 μM)	percentage of gene editing, GFP fluorescence intensity decrease (% of reduction) ([1]; Palmitoleyl, 5 μM)	further results
Ac-RRLK*RLLRRLK*RLK*RRL-NH2 (Ac-RRLK(NHNH2)RLLRRLK(NHNH2)RLK(NHNH2)RRL-NH2; not fully specified; printed as Ac-RRLK*RLLRRLK*RLK*RRL-NH2; also: K*4,K*11,K*14: native or modified lysine (ε-amide to a linker)) [Peptide 17.3]	−148 RLU	−514 RLU	−339 RLU	413 RLU	5399 RLU	398 RLU	85712 RLU	1535 RLU	1856 RLU	309 RLU	−392 RLU	2071 RLU	2261 RLU	246511 RLU	163602 RLU	237718 RLU	7153 RLU	45%	−9%	12%	mean luminescent intensity (RLuc pDNA) (ARPE19 cells; Dodecanal, 5 μM): 411 RLU; mean luminescent intensity (RLuc pDNA) (ARPE19 cells; Dodecanal, 10 μM): 617 RLU; mean luminescent intensity (RLuc pDNA) (ARPE19 cells; Dodecanal, 15 μM): 1217 RLU; mean luminescent intensity (RLuc pDNA) (ARPE19 cells; Oleyl, 10 μM): 822 RLU; mean luminescent intensity (RLuc pDNA) (ARPE19 cells; Oleyl, 15 μM): 1043 RLU; mean luminescent intensity (RLuc pDNA) (ARPE19 cells; Palmitoleyl, 5 μM): 7062 RLU; mean luminescent intensity (RLuc pDNA) (Hela cells; Hela, Palmitoleyl, 5 μM): 190106 RLU; percentage of gene editing, GFP fluorescence intensity decrease (% of reduction) ([1]; Myristoleyl, 10 μM): 44%; percentage of gene editing, GFP fluorescence intensity decrease (% of reduction) ([1]; Palmitoleyl, 10 μM): 60%; percentage of gene editing, GFP fluorescence intensity decrease (% of reduction) ([1]; Palmitoleyl, 15 μM): 31%; percentage of gene editing, GFP fluorescence intensity decrease (% of reduction) ([1]; Petroselinyl, 10 μM): 26%; percentage of gene editing, GFP fluorescence intensity decrease (% of reduction) ([1]; Petroselinyl, 15 μM): 27%
Ac-RK*LRRK*LRK*-NH2 (Ac-RK(NHNH2)LRRK(NHNH2)LRK(NHNH2)-NH2; not fully specified; printed as Ac-RK*LRRK*LRK*-NH2; also: K*2,K*6,K*9: native or modified lysine (ε-amide to a linker)) [Peptide 9.3]	1400 RLU	6498 RLU	1695 RLU	7259 RLU	1052 RLU	55918 RLU	1228 RLU	70716 RLU	303962 RLU	3600 RLU	18554 RLU	5404 RLU	1759 RLU	940 RLU	22617 RLU	1035 RLU	14602 RLU	23%	22%	3%	mean luminescent intensity (RLuc pDNA) (ARPE19 cells; Petroselinyl, 10 μM): 39447 RLU; mean luminescent intensity (RLuc pDNA) (Hela cells; Hela, Myristoleyl, 15 μM): 4014 RLU; percentage of gene editing, GFP fluorescence intensity decrease (% of reduction) ([1]; Dodecanal, 5 μM): 5%; percentage of gene editing, GFP fluorescence intensity decrease (% of reduction) ([1]; Dodecanal, 15 μM): −14%; percentage of gene editing, GFP fluorescence intensity decrease (% of reduction) ([1]; Myristoleyl, 15 μM): −25%; percentage of gene editing, GFP fluorescence intensity decrease (% of reduction) ([1]; Palmitoleyl, 15 μM): 8%; percentage of gene editing, GFP fluorescence intensity decrease (% of reduction) ([1]; Petroselinyl, 15 μM): −2%
